The text below walks through data of patent publication US12398154B2, “Azaquinazoline pan-KRas inhibitors” (Mirati Therapeutics, Inc., priority 2020, dated 2025).

Broadly, the IC50 is the concentration that inhibits the measured activity by half. A higher IC50 goes with lower potency.

What all share (experiment): biochemical
Assay [1] deals with KRas G12S (Homo sapiens, UniProt P01116, G12S).
Protocol: (§1) The ability of a compound to bind to KRas was measured using a TR-FRET displacement assay. […] After a 60-minute incubation at room temperature, the reaction was measured using a BMG LABTECH CLARIO star Plus via TR-FRET. […] The POC values were fit to a 4-parameter IC50 equation and the IC50 value reported.
The target in assay [2] is KRas G12R (Homo sapiens, UniProt P01116, G12R).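 Further: TR-FRET displacement assay of compound binding to KRas, read after one hour at room temperature, potency from a four-parameter fit of percent-of-control values.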
Protocol: as §1
For assay [3], the target named is KRas WT (Homo sapiens, UniProt P01116).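 Further: binding to KRas read as TR-FRET displacement after a one-hour room-temperature incubation, IC50 derived from percent-of-control values.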
Protocol: as §1
For assay [4], the target named is KRas G12A (Homo sapiens, UniProt P01116, G12A).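 Further: binding to KRas measured by TR-FRET displacement after one hour at room temperature, IC50 from a four-parameter fit of percent-of-control values.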
Protocol: as §1
Assay [5] deals with KRas G12D (Homo sapiens, UniProt P01116, G12D).
Protocol: as §1
Assay [6] concerns the target KRas G12C (Homo sapiens, UniProt P01116, G12C).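 Further: binding to KRas assessed by TR-FRET displacement after one hour incubation at room temperature, potency fitted from percent-of-control values.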
Protocol: as §1
Assay [7] concerns the target KRas G12V (Homo sapiens, UniProt P01116, G12V).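 Further: KRas binding measured by TR-FRET displacement at room temperature, IC50 fitted from percent of control values.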
Protocol: as §1

KRas WT, sequence (P01116 1-169 isoform P01116-2): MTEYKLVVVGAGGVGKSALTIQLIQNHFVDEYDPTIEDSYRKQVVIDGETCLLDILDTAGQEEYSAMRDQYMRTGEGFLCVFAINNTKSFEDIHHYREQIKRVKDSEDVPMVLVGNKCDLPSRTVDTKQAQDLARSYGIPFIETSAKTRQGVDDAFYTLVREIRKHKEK
KRas G12R, sequence (P01116 1-169 isoform P01116-2 G12R): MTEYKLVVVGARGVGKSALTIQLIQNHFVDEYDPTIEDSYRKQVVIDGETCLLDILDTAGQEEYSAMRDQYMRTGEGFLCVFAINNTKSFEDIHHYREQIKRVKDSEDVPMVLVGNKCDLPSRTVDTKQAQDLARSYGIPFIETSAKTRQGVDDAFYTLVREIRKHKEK
KRas G12S, sequence (P01116 1-169 isoform P01116-2 G12S): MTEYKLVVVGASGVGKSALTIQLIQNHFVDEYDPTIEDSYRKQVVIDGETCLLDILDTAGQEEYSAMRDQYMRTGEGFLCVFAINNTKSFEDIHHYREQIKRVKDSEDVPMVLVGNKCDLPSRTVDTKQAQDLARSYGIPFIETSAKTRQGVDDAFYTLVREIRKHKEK
KRas G12V, sequence (P01116 1-169 isoform P01116-2 G12V): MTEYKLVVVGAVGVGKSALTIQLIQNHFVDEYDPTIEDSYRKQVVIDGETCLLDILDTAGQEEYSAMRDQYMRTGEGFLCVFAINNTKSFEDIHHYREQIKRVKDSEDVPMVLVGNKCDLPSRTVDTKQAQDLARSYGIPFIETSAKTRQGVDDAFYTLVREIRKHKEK
KRas G12A, sequence (P01116 1-169 isoform P01116-2 G12A): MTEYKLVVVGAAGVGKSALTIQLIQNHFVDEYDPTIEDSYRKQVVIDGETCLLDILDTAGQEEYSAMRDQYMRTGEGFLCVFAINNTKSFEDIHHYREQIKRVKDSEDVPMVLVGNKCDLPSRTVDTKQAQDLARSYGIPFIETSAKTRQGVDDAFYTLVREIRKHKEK
KRas G12C, sequence (P01116 1-169 isoform P01116-2 G12C): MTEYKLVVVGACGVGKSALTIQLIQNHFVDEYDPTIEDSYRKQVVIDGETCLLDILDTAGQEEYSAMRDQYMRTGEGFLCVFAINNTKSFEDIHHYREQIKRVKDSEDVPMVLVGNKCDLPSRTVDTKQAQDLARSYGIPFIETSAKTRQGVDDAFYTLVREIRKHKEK
KRas G12D, sequence (P01116 1-169 isoform P01116-2 G12D): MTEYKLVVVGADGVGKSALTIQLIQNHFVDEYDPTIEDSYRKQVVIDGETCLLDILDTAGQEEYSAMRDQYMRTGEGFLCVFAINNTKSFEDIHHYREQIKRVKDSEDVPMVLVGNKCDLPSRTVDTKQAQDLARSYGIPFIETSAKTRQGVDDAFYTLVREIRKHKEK

As to `O=C1C[C@@]2(CCN(c3nc(OCC45CCCN4CCC5)nc4c(F)c(-c5cccc6cccc(F)c56)ncc34)C2)CN1` [Example 280, (S)-7-(8-fluoro-7-(8-fluoronaphthalen-1-yl)-2-((hexahydro-1H-pyrrolizin-7a-yl)methoxy)pyrido[4,3-d]pyrimidin-4-yl)-2,7-diazaspiro[4.4]nonan-3-one], the half-maximal inhibitory concentration (IC50) in assay [1] was at least 100000 nM; in assay [2], at least 100000 nM; in assay [3], at least 100000 nM; in assay [4], at least 100000 nM; in assay [5], at least 100000 nM; in assay [6], 9860 nM. For the same compound, the IC50 in assay [7] is at least 100000 nM.
For the compound `NS(=O)(=O)CC1CCCN(c2nc(OCC34CCCN3CCC4)nc3c(F)c(-c4cccc5cccc(Cl)c45)ncc23)C1` (stereo not drawn) [Example 281, 1-(1-(7-(8-chloronaphthalen-1-yl)-8-fluoro-2-((tetrahydro-1H-pyrrolizin-7a(5H)-yl)methoxy)pyrido[4,3-d]pyrimidin-4-yl)piperidin-3-yl)methanesulfonamide], the IC50 in assay [1] amounted to 67 nM; in assay [2], 81 nM; in assay [3], 61 nM; in assay [4], 59 nM; in assay [5] it was 213 nM; in assay [6], 75 nM. For the same compound, the IC50 in assay [7] worked out at 170 nM.
In the case of `O=C1NC(=O)C2(CCCN(c3nc(OCC45CCCN4CCC5)nc4c(F)c(-c5cccc6cccc(Cl)c56)ncc34)C2)N1` (stereo not drawn) [Example 282, 7-(7-(8-chloronaphthalen-1-yl)-8-fluoro-2-((hexahydro-1H-pyrrolizin-7a-yl)methoxy)pyrido[4,3-d]pyrimidin-4-yl)-1,3,7-triazaspiro[4.5]decane-2,4-dione], the 50% inhibitory concentration (IC50) amounted to 15 nM in assay [1]; 18 nM in assay [2]; 15 nM in assay [3]; 16 nM in assay [4]; 30 nM in assay [5]; 16 nM in assay [6]. Further, the midpoint of inhibition in assay [7], the IC50, lay at 15 nM.
In the case of `O=C1CC2(CCCN(c3nc(OCC45CCCN4CCC5)nc4c(F)c(-c5cccc6cccc(Cl)c56)ncc34)C2)N1` (stereo not drawn) [Example 283, 6-(7-(8-chloronaphthalen-1-yl)-8-fluoro-2-((tetrahydro-1H-pyrrolizin-7a(5H)-yl)methoxy)pyrido[4,3-d]pyrimidin-4-yl)-1,6-diazaspiro[3.5]nonan-2-one], the IC50 in assay [1] was found to be 91 nM; in assay [2] it was 129 nM; in assay [3], 113 nM; in assay [4], 97 nM; in assay [5] it was 97 nM; in assay [6] it was 77 nM. In assay [7], the IC50 is 90 nM.
For `O=C1NCC2(CCCN(c3nc(OCC45CCCN4CCC5)nc4c(F)c(-c5cccc6cccc(Cl)c56)ncc34)C2)N1` (stereo not drawn) [Example 284, 7-(7-(8-chloronaphthalen-1-yl)-8-fluoro-2-((hexahydro-1H-pyrrolizin-7a-yl)methoxy)pyrido[4,3-d]pyrimidin-4-yl)-1,3,7-triazaspiro[4.5]decan-2-one], the IC50 in assay [1] was found to be 45 nM; in assay [2] it was 58 nM; in assay [3] it was 46 nM; in assay [4] it was 46 nM; in assay [5], 38 nM; in assay [6], 44 nM. In assay [7], the IC50 is 41 nM.
As for `CCc1cccc2cccc(-c3ncc4c(N5CCCC(CS(N)(=O)=O)C5)nc(OCC56CCCN5CCC6)nc4c3F)c12` (stereo not drawn) [Example 285, 1-(1-(7-(8-ethylnaphthalen-1-yl)-8-fluoro-2-((tetrahydro-1H-pyrrolizin-7a(5H)-yl)methoxy)pyrido[4,3-d]pyrimidin-4-yl)piperidin-3-yl)methanesulfonamide], the IC50 in assay [1] was determined as 359 nM; in assay [2] it was 350 nM; in assay [3], 323 nM; in assay [4] it was 367 nM; in assay [5], 976 nM; in assay [6], 426 nM. In addition, in assay [7], the IC50 is 864 nM.
With `CCc1cccc2cccc(-c3ncc4c(N5CCCC6(CNC(=O)C6)C5)nc(OCC56CCCN5CCC6)nc4c3F)c12` (stereo not drawn) [Example 286, 7-(7-(8-ethylnaphthalen-1-yl)-8-fluoro-2-((hexahydro-1H-pyrrolizin-7a-yl)methoxy)pyrido[4,3-d]pyrimidin-4-yl)-2,7-diazaspiro[4.5]decan-3-one], the IC50 is 407 nM in assay [1]; 674 nM in assay [2]; 608 nM in assay [3]; 370 nM in assay [4]; 313 nM in assay [5]; 410 nM in assay [6]. The compound also yielded an IC50 in assay [7] of 521 nM.
With `CCc1cccc2cccc(-c3ncc4c(NCc5cn[nH]c5)nc(OCC56CCCN5CCC6)nc4c3F)c12` [Example 287, N-((1H-pyrazol-4-yl)methyl)-7-(8-ethylnaphthalen-1-yl)-8-fluoro-2-((hexahydro-1H-pyrrolizin-7a-yl)methoxy)pyrido[4,3-d]pyrimidin-4-amine], the IC50 is 590 nM in assay [1]; 225 nM in assay [2]; 838 nM in assay [3]; 648 nM in assay [4]; 8170 nM in assay [5]; 321 nM in assay [6]. The IC50 in assay [7] amounted to 225 nM.
For `CCc1cccc2cccc(-c3ncc4c(N5CCCC6(CC(=O)N6)C5)nc(OCC56CCCN5CCC6)nc4c3F)c12` (stereo not drawn) [Example 288, 6-(7-(8-ethylnaphthalen-1-yl)-8-fluoro-2-((hexahydro-1H-pyrrolizin-7a-yl)methoxy)pyrido[4,3-d]pyrimidin-4-yl)-1,6-diazaspiro[3.5]nonan-2-one], the IC50 in assay [1] worked out at 82 nM; in assay [2], 78 nM; in assay [3] it was 89 nM; in assay [4] it was 95 nM; in assay [5] it was 53 nM; in assay [6], 68 nM. For the same compound, half-maximal inhibition in assay [7] (IC50) was put at 67 nM.
As for `CCc1cccc2cccc(-c3ncc4c(N5CCOCC(CO)C5)nc(OCC56CCCN5CCC6)nc4c3F)c12` (stereo not drawn) [Example 289, (4-(7-(8-ethylnaphthalen-1-yl)-8-fluoro-2-((hexahydro-1H-pyrrolizin-7a-yl)methoxy)pyrido[4,3-d]pyrimidin-4-yl)-1,4-oxazepan-6-yl)methanol], the IC50 in assay [1] amounted to 520 nM; in assay [2] it was 754 nM; in assay [3], 818 nM; in assay [4], 607 nM; in assay [5], 5610 nM; in assay [6], 407 nM. The same compound displayed an IC50 in assay [7] of 807 nM.
Turning to `CCc1cccc2cccc(-c3ncc4c(N5CC6CC(O)C(C6)C5)nc(OCC56CCCN5CCC6)nc4c3F)c12` (stereo not drawn) [Example 290, 3-(7-(8-ethylnaphthalen-1-yl)-8-fluoro-2-((hexahydro-1H-pyrrolizin-7a-yl)methoxy)pyrido[4,3-d]pyrimidin-4-yl)-3-azabicyclo[3,2,1]octan-6-ol], the IC50 was 147 nM in assay [1]; 176 nM in assay [2]; 276 nM in assay [3]; 183 nM in assay [4]; 582 nM in assay [5]; 207 nM in assay [6]. Moreover, the half-inhibitory concentration (IC50) in assay [7] turned out to be 171 nM.
Turning to `CCc1cccc2cccc(-c3ncc4c(N5CCOCC(C)(O)C5)nc(OCC56CCCN5CCC6)nc4c3F)c12` (stereo not drawn) [Example 291, 4-(7-(8-ethylnaphthalen-1-yl)-8-fluoro-2-((hexahydro-1H-pyrrolizin-7a-yl)methoxy)pyrido[4,3-d]pyrimidin-4-yl)-6-methyl-1,4-oxazepan-6-ol], the half-inhibitory concentration (IC50) came to 192 nM in assay [1]; 439 nM in assay [2]; 269 nM in assay [3]; 229 nM in assay [4]; 140 nM in assay [5]; 161 nM in assay [6]. In assay [7], this compound returned an IC50 of 277 nM.
For `CCc1cccc2cccc(-c3ncc4c(N5CC6C(=O)NC(=O)C6C5)nc(OCC56CCCN5CCC6)nc4c3F)c12` (stereo not drawn) [Example 292, 5-(7-(8-ethylnaphthalen-1-yl)-8-fluoro-2-((hexahydro-1H-pyrrolizin-7a-yl)methoxy)pyrido[4,3-d]pyrimidin-4-yl)tetrahydropyrrolo[3,4-c]pyrrole-1,3(2H,3aH)-dione], the IC50 in assay [1] stood at 26 nM; in assay [2], 180 nM; in assay [3], 68 nM; in assay [4], 97 nM; in assay [5], 21 nM; in assay [6] it was 88 nM. In addition, the concentration for half-maximal inhibition (IC50) in assay [7] was 61 nM.
In the case of `CCc1cccc2cccc(-c3ncc4c(N5CCCC6(C5)NC(=O)NC6=O)nc(OCC56CCCN5CCC6)nc4c3F)c12` (stereo not drawn) [Example 293, 7-(7-(8-ethylnaphthalen-1-yl)-8-fluoro-2-((hexahydro-1H-pyrrolizin-7a-yl)methoxy)pyrido[4,3-d]pyrimidin-4-yl)-1,3,7-triazaspiro[4.5]decane-2,4-dione], the IC50 in assay [1] came out at 6 nM; in assay [2], 5 nM; in assay [3], 6 nM; in assay [4], 5 nM; in assay [5], 10 nM; in assay [6], 6 nM. In addition, in assay [7], the concentration for half-maximal inhibition (IC50) was found to be 4 nM.
As to `CCc1cccc2cccc(-c3ncc4c(N5CCCC6(CNC(=O)N6)C5)nc(OCC56CCCN5CCC6)nc4c3F)c12` (stereo not drawn) [Example 294, 7-(7-(8-ethylnaphthalen-1-yl)-8-fluoro-2-((hexahydro-1H-pyrrolizin-7a-yl)methoxy)pyrido[4,3-d]pyrimidin-4-yl)-1,3,7-triazaspiro[4.5]decan-2-one], the IC50 worked out at 12 nM in assay [1]; 15 nM in assay [2]; 14 nM in assay [3]; 13 nM in assay [4]; 9 nM in assay [5]; 13 nM in assay [6]. In assay [7], this compound yielded an IC50 of 9 nM.
